# Peptide text beside a SMILES is read from it.
# How the values were obtained:
# Solubility assessment = details: for appearance of solution in 3% DMSO: 0.3 mg/mL in water (DW) with 3% DMSO; for appearance of solution in 3% DMSO / appearance of solution in 10% DMSO: visual images; for appearance of solution in 10% DMSO: 0.3 mg/mL in water with 10% DMSO
# Method: The images aimed to observe how well these compounds dissolved in the solution. Additionally, an experiment was carried out to precisely determine the aqueous solubility values of (Ac)FRRF-DTX nanoparticles. […] […] Moreover, complementary experiments were performed to obtain accurate quantitative solubility values for (Ac)FRRF-DTX NPs.
# [1] = molecular target: T1, Cathepsin B from bovine spleen (Bos taurus, UniProt P07688); assay: Cathepsin B cleavage assay (RP-HPLC, LC-MS); type: in vitro ADME; details: 50 µM, 25 mM MES buffer, 37℃, RP-HPLC 245 nm
# T1 construct: Cathepsin B from bovine spleen; purchased Sigma-Aldrich; host or cells: bovine spleen (tissue-derived enzyme)
# Excerpt: Antibiotic antimycotic solution (100X), Bio TrackerTM 488 Green Microtubule Cytoskeleton Dye, Cathepsin B from bovine spleen, Dimethyl sulfoxide (DMSO), Dulbecco’s modified Eagle’s medium (DMEM), 1-ethyl-3-(3-dimethylaminopropyl) carbodiimide (EDCI), dichloromethane (DCM), ether, phosphate-buffered saline (PBS), rhodamine B isothiocyanate (RITC), 2-(4-amidi-nophenyl)-6-indolecarbamidine dihydrochloride (DAPI), Tetramethylsilane (TMS), Dimethyl sulfoxide-d6 (DMSO-d6) were purchased from Sigma-Aldrich (St. Louis, MO, USA). Paraformaldehyde solution 4% in PBS (PFA), PierceTM BCA Protein Assay Kit were obtained from Thermo Fisher Scientific (Waltham, MA, USA). EZ-Cytox kit was purchased from DoGenBio (Seoul, Republic of Korea). Fetal bovine serum (FBS), 0.5% Trypsin-EDTA (10X) were obtained from Gibico (Waltham, MA, USA). Neutral buffered formalin (10%) was purchased from HuBenTech (Damyang, Republic of Korea).
# The cathepsin B-specific cleavage of (Ac)FRRF-DTX was analyzed using reverse-phase high-performance liquid chromatography (RP-HPLC), and the molecular weight of PTXm was determined by liquid chromatography-mass spectrometry (LC-MS). […] The cleavage profile of (Ac)FRRF-DTX NPs was analyzed at 245 nm using reversed-phase high-performance liquid chromatography (RP-HPLC) under solvent gradient conditions (from 90:10 H2O/acetonitrile to 10:90 H2O/acetonitrile over 40 min). […]
# Hep G2 cells = assay: In vitro cytotoxicity assay (EZ-Cytox); type: cell-based; details: Hep G2, 48 h; for cell viability at 500 µM in 3% DMSO solution / cell viability at 500 µM: relative to untreated group; for cell viability at 500 µM in 3% DMSO solution: n = 6; for cell viability at 500 µM: n = 5-6, mean ± S.D.
# Method: The cytotoxicity of (Ac)FRRF, de-Boc-DTX, (Ac)FRRF-DTX NPs, PTXm and PTX were evaluated using the EZ-Cytox assay on Hep G2 cell. Hep G2 was cultured in a 96-well plate at concentrations of 5.0 × 10^3 cells/well and 1.0 × 10^4 cells/well, respectively, under conditions of 37℃ and 5% CO2 for 1 h. Subsequently, cells were cultured for 48 h with concentrations ranging from 0.1 to 500 µM of each drug. Cell viability (n = 5 − 6) was measured at 450 and 600 nm absorbance using the EZ-Cytox cell viability assay kit (Daeil Lab Service, Republic of Korea) and a microplate reader (SPECTROstar Nano spectrophotometer, BMG Labtech, Germany). Cell viability was calculated by comparing the absorbance values of the measured samples with those of the control group. Additionally, to more accurately confirm the cytotoxicity of DTX and PTX with low solubility in aqueous media for Hep G2 cell, both of drug were dissolved in a 3% DMSO solution and cultured for 48 h at concentrations ranging from 0.1 to 500 µM. Cell viability was determined using the same method.
# [2] = Morphology / nanoparticle formation by TEM and SEM; type: physicochemical
# Hep G2 tumors = assay: In vivo antitumor test (Hep G2 xenograft); set-up: species or system BALB/c nude mice; details: for average tumor weight after 17 days / tumor size after 17 days: i.v. at 3 day intervals, PTX, de-Boc-DTX 5 mg/kg, NPs 10 mg/kg; for average tumor weight after 17 days: control 595.28 ± 282.98; for tumor size after 17 days: control 2161.12 ± 946.71; for TUNEL staining fluorescence intensity of tumor tissue: tumors after 17 days, ImageJ, relative to control group, n = 3
# Method: All animal experiments were conducted in accordance with the standard regulations of the Konkuk University Animal Experimentation Ethics Committee (Ref: no. KU220748-1). Hep G2 cells at a concentration of 1.0 × 10^7 cells/100 µL were subcutaneously inoculated into the dorsal region at 6-week-old male BALB/c nude mice (Orient Bio, Seongnam, Republic of Korea). After […], when the tumor volume reached approximately 50 − 100 mm^3 (calculated as the maximum diameter × minimum diameter^2 × 0.52), the mice were divided into four groups. Mice with tumors were intravenously administered saline, de-Boc-DTX (5 mg/kg), PTX (5 mg/kg), or (Ac)FRRF-DTX NPs (10 mg/kg; based on 5 mg/kg of de-Boc-DTX) at 3 days intervals for a total of 17 days. The body weight and tumor volume of the treated mice were measured every other day using a digital caliper (ASIMETO, Mooresville, NC, USA). After 17 days of treatment, tumors were fixed with diluted 10% neutral pH formalin (HuBen Tech, Republic of Korea). Tumor tissues were stained with TUNEL, Ki-67, and H&E. Sections of tumor tissues stained with Ki-67 and H&E were observed using the OS-33DPM multimedia video microscope (OSUN HITECH, Republic of Korea). Additionally, tumor tissues stained with TUNEL were sliced for histological observation using an ECLIPSE Ti2 inverted microscope (Nikon, Japan), and FITC fluorescence intensity was quantified using ImageJ (U.S. National Institutes of Health) (n = 3).
# [3] = mouse, in vivo
# [4] = system: microtubules in Hep G2 cells; assay: In vitro microtubule staining (BioTracker 488 Green Microtubule Cytoskeleton Dye); type: cell-based; details: Hep G2, 100 µM, 24 h, versus well-organized control
# Method: To assess the cell death induced by PTX, PTXm, and (Ac)FRRF-DTX NPs in Hep G2 cells, an evaluation was conducted using the nucleic green reagent, and the results were visualized through imaging. Hep G2 cells cultured in high-glucose DMEM medium, maintain in a sample chamber with appropriate humidity, and kept at 37℃ with 5% CO2. The cells were cultured in 35 mm fluorescent cell culture dishes (SPL Life Science, Republic of Korea) at a concentration of 4 × 10^4 for 3 h. Subsequently, DTX, PTX, and (Ac)FRRF-DTX NPs were all treated at a concentration of 100 µM (in DMSO 2%) for 24 h. After sample treatment, cells were washed five times with DPBS solution, and in a light-protected environment, the medium was replaced with a mixture of microtubule reagent (Bio Tracker™ 488 Green Microtubule Cytoskeleton Dye, Sigma-Aldrich, MO, USA) in fresh medium at RT for 30 min. Following this, the medium was replaced with new DMEM containing 10% FBS, and images were captured using ECLIPSE Ti2 Series (Nikon, Japan) with a FITC filter and quantified using ImageJ (U.S. National Institutes of Health).
# [5] = In vivo blood toxicity assessment (hematology); details: normal mice, i.v.; PTX 1.5 mg/kg, NPs 3 mg/kg; blood after 7 days, n = 5
# Method: Hematological analysis of red blood cell (RBC) and white blood cell (WBC) parameters in mice treated with (Ac)FRRF-DTX was performed through clinical pathological examinations. Normal saline (control group), de-Boc-DTX (1.5 mg/kg), PTX (1.5 mg/kg), and (Ac)FRRF-DTX NPs (3 mg/kg) were dissolved in 200 µL of normal saline and administered daily via tail vein. After 7 days, blood was drawn from the mice’s heart and collected in tubes containing EDTA to prevent coagulation. Subsequently, whole blood samples were stored for analysis. Level of RBC-related parameters (RBC, HGB, HCT, MCV, MHC, MCHC) and WBC-related parameters (WBC, PLT, NEU, LYM, MONO, EOS) were measured using a hematology analyzer (Sysmex XN series, Sysmex, Japan) (n = 5).
Compound,appearance of solution in 3% DMSO (Solubility assessment),appearance of solution in 10% DMSO (Solubility assessment),cell viability at 500 µM in 3% DMSO solution (Hep G2 cells),cell viability at 500 µM (Hep G2 cells; without DMSO),morphology / nanoparticle formation [2],average tumor weight after 17 days (Hep G2 tumors; n = 5-7),tumor size after 17 days (Hep G2 tumors; n = 5-7),TUNEL staining fluorescence intensity of tumor tissue (Hep G2 tumors),"histological toxicity in major organs (heart, liver, spleen, lungs, kidney) [3]",appearance of microtubule structures [4],other results
"CC(=O)N[C@@H](Cc1ccccc1)C(=O)N[C@@H](CCCNC(=N)N)C(=O)N[C@@H](CCCNC(=N)N)C(=O)N[C@@H](Cc1ccccc1)C(=O)N[C@@H](c1ccccc1)[C@@H](O)C(=O)O[C@H]1C[C@@]2(O)[C@@H](OC(=O)c3ccccc3)[C@@H]3[C@]4(OC(C)=O)CO[C@@H]4C[C@H](O)[C@@]3(C)C(=O)[C@H](O)C(=C1C)C2(C)C [(Ac)FRRF-DTX, Acetylated Phenylalanine-Arginine-Arginine-Phenylalanine Docetaxel]",,,,,,,,,,,"solubility in water (Solubility assessment; water without DMSO): 1.3 mg/20 µL; change of (Ac)FRRF-DTX in the absence of cathepsin B ([1]; 0-72 h, no cathepsin B): remained unchanged; nanoconversion of (Ac)FRRF-DTX to PTXm at 48 h ([1]; cathepsin B 50 µg/mL, 48 h): complete nanoconversion"
"CC(=O)O[C@@]12CO[C@@H]1C[C@H](O)[C@@]1(C)C(=O)[C@H](O)C3=C(C)[C@@H](OC(=O)[C@H](O)[C@@H](NC(=O)OC(C)(C)C)c4ccccc4)C[C@@](O)([C@@H](OC(=O)c4ccccc4)[C@H]21)C3(C)C [DTX, Docetaxel]",opaque or precipitated,clear,24.9 ± 4.6%,57.9 ± 8.9%,,,,,,,
CC(=O)O[C@@]12CO[C@@H]1C[C@H](O)[C@@]1(C)C(=O)[C@H](O)C3=C(C)[C@@H](OC(=O)[C@H](O)[C@@H](N)c4ccccc4)C[C@@](O)([C@@H](OC(=O)c4ccccc4)[C@H]21)C3(C)C [de-Boc-DTX],,,,75.3 ± 5.4%,absence of nanoparticle formation,265.94 ± 298.69 mg,1262.19 ± 1209.27 mm^3,196.50 ± 4.25%,no significant toxicity,,
"CC(=O)O[C@H]1C(=O)[C@@]2(C)[C@H]([C@H](OC(=O)c3ccccc3)[C@]3(O)C[C@H](OC(=O)[C@H](O)[C@@H](NC(=O)c4ccccc4)c4ccccc4)C(C)=C1C3(C)C)[C@]1(OC(C)=O)CO[C@@H]1C[C@@H]2O [PTX, paclitaxel]",opaque or precipitated,clear,27.4 ± 4.5%,55.5 ± 4.9%,,293.97 ± 164.22 mg,1029.79 ± 752.19 mm^3,183.71 ± 2.32%,no significant toxicity,indistinct,"body weight change (Hep G2 tumors; 17 days treatment, n = 5-7): no significant changes in body weight; white blood cell parameters (NEU, LYM, EOS concentrations) [5]: alterations in NEU, LYM and EOS concentrations"
CC(=O)O[C@@]12CO[C@@H]1C[C@H](O)[C@@]1(C)C(=O)[C@H](O)C3=C(C)[C@@H](OC(=O)[C@H](O)[C@@H](NC(=O)[C@@H](N)Cc4ccccc4)c4ccccc4)C[C@@](O)([C@@H](OC(=O)c4ccccc4)[C@H]21)C3(C)C [PTXm],,,,40.9 ± 10.9%,,,,,,indistinct,"IC50 (Hep G2 cells; tested 0.1-500 µM, without DMSO): 214 µM"
"CC(=O)N[C@@H](Cc1ccccc1)C(=O)N[C@@H](CCCNC(=N)N)C(=O)N[C@@H](CCCNC(=N)N)C(=O)N[C@@H](Cc1ccccc1)C(=O)O [(Ac)FRRF, acetylated Phe-Arg-Arg-Phe peptide] (Ac-FRRF-OH)",,,,84.1 ± 6.6%,absence of nanoparticle formation,,,,,,

# Source: publication PMC12033163, “Tumor-specific biochemical nanoconversion of self-assembled peptide-conjugated paclitaxel-docetaxel-based nanoparticles” (Nano Convergence, 2025)
